Data reported in patent US20240262842A1, “SMALL MOLECULE INHIBITORS OF KRAS G12C MUTANT” (Merck Sharp & Dohme LLC, priority 2021, published 2024).
Where two headings read alike, the source gives them in different places.

Legend:
[1] = target: T1, interaction between GMPPNP-bound recombinant K-Ras4B G12C mutant protein and cRAF RAS-binding domain (cRAF-RBD) (Homo sapiens, UniProt P01116, G12C); assay: Inhibitory activity on interaction between KRAS G12C and cRAF (Alpha technology); conditions: Table 2-1
T1 construct: His-tag (N)
T1 sequence (P01116 with tags, fused parts or gaps isoform P01116-2 G12C): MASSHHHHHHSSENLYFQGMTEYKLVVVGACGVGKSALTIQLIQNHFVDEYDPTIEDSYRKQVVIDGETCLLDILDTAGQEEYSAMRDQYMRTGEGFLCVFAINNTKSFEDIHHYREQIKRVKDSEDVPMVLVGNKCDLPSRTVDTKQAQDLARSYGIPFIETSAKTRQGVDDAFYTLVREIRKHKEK
Outline: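 Alpha signal measured 1.5 h after adding cRAF-RBD (aa 50-132) and detection reagents to GMPPNP-bound KRAS G12C (aa 1-169) pretreated 1 h at 25° C with compound (pH 7.5 buffer). 0% inhibition = DMSO, 100% = GDP-loaded KRAS; IC50 by curve fit.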

[2] = system: MIA PaCa-2 cells; assay: Growth inhibition activity on KRAS-G12C mutant cell line (CellTiter-Glo 3D); format: cell-based, human; conditions: Homo sapiens, MIA PaCa-2, 72 h, MIA PaCa-2, 3-day culture with compound; Table 3-1
Outline: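 IC50 (nM) derived from inhibition of luminescence (CellTiter-Glo 3D) relative to compound-free wells. Cells were seeded in U-bottom plates, grown 1 day, then exposed to compound for 3 days at 37 °C with 0.2% final DMSO.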

[3] = IC50, GMPPNP-bound KRAS G12C incubated with compound 25° C. 1 hour
[4] = GMPPNP-bound KRAS G12C incubated with compound 25° C. 1 hour, read-out: IC50

| Compound | IC50 [1, 3] [nM] | IC50 [2] [nM] | IC50 [1, 4] [nM] |
| --- | --- | --- | --- |
| Cc1cc2c(nc(C)n2C)c2c1-c1cccc3c(C(=O)c4cc(F)c(NC(=O)/C=C/CN5CCC[C@H]5C(C)(C)O)c(F)c4)cn(c13)CCN2C [Example 122, (S,E)-N-(2,6-difluoro-4-(6,8,9,11-tetramethyl-8,11,12,13-tetrahydro-imidazo[4″,5″:5′,6′]benzo-[1′,2′:5,6][1,4]diazocino-[7,8,1-hi]indole-2-carbon-yl)phenyl)-4-(2-(2-hydroxypropan-2-yl)-pyrrolidin-1-yl)but-2-enamide] | 54.1 | 88.2 |  |
| Cc1cc2c(nc(C)n2C)c2c1-c1cccc3c(C(=O)c4cc(F)c(NC(=O)/C=C/CNC5CCOC5(C)C)c(F)c4)cn(c13)CCN2C (stereo not shown) [Example 123, (E)-N-(2,6-difluoro-4-(6,8,9,11-tetramethyl-8,11,12,13-tetrahydro-imidazo[4″,5″:5′,6′]benzo-[1′,2′:5,6][1,4]diazocino-[7,8,1-hi]indole-2-carbon-yl)phenyl)-4-((2,2-dimeth-yltetrahydrofuran-3-yl)-amino)but-2-enamide] | 41.8 | 35 |  |
| Cc1cc2c(nc(C)n2C)c2c1-c1cccc3c(C(=O)c4cc(F)c(NC(=O)/C=C/CNC5COC(C)(C)C5)c(F)c4)cn(c13)CCN2C (stereo not shown) [Example 124, (E)-N-(2,6-difluoro-4-(6,8,9,11-tetramethyl-8,11,12,13-tetrahydro-imidazo[4″,5″:5′,6′]benzo-[1′,2′:5,6][1,4]diazocino-[7,8,1-hi]indole-2-carbon-yl)phenyl)-4-((5,5-dimeth-yltetrabydrofuran-3-yl)-amino)but-2-enamide] | 13 | 13.7 |  |
| Cn1cnc2c3c(c(C(F)(F)F)cc21)-c1cccn2c(C(=O)c4cc(F)c(NC(=O)/C=C/CNC56CCC(CC5)OC6)c(F)c4)cc(c12)CCO3 [Example 125] |  | 9.06 | 3.75 |
| COCCNC/C=C/C(=O)Nc1c(F)cc(C(=O)c2cc3c4c(cccn24)-c2c(C(F)(F)F)cc4c(ncn4C)c2N(C)CC3)cc1F [Example 126, (E)-N-(4-(9,12-dimethyl-7-(trifluoromethyl)-9,12,13,14-tetrahydro-imidazo[4″,5″:5′,6′]benzo-[1′,2′:2,3]azocino[4,5,6-hi]indolizine-2-carbonyl)-2,6-difluorophenyl)-4-((2-methoxyethyl)amino)but-2-enamide] |  | 14.3 | 18 |
| COCC1(NC/C=C/C(=O)Nc2c(F)cc(C(=O)c3cc4c5c(cccn35)-c3c(C(F)(F)F)cc5c(ncn5C)c3N(C)CC4)cc2F)CCCC1 [Example 127, (E)-N-(4-(9,12-dimethyl-7-(trifluoromethyl)-9,12,13,14-tetrahydro-imidazo[4″,5″:5′,6′]benzo-[1′,2′:2,3]azocino[4,5,6-hi]indolizine-2-carbonyl)-2,6-difluorophenyl)-4-((1-(methoxymethyl)cyclo-pentyl)amino)but-2-en-amide] |  | 22.5 | 16.8 |
| COC[C@H](CO)NC/C=C/C(=O)Nc1c(F)cc(C(=O)c2cc3c4c(cccn24)-c2c(C(F)(F)F)cc4c(ncn4C)c2N(C)CC3)cc1F [Example 128, (S,E)-N-(4-(9,12-dimeth-yl-7-(trifluoromethyl)-9,12,13,14-tetrahydro-imidazo[4″,5″:5′,6′]benzo-[1′,2′:2,3]azocino[4,5,6-hi]indolizine-2-carbonyl)-2,6-difluorophenyl)-4-((1-hydroxy-3-methoxy-propan-2-yl)amino)but-2-enamide] |  | 11.8 | 18.8 |
| CC1Cc2cc(C(=O)c3cc(F)c(NC(=O)/C=C/CNC4(C)COC4)c(F)c3)n3cccc(c23)-c2c(C(F)(F)F)cc3c(ncn3C)c2O1 (stereo not shown) [Example 130, (E)-N-(4-(9,13-dimethyl-7-(trifluoromethyl)-13,14-dihydro-9H-imidazo[4″,5″:5′,6′]benzo[1′,2′:2,3]oxocino[4,5,6-hi]indolizine-2-carbonyl)-2,6-difluorophenyl)-4-((3-methyloxetan-3-yl)amino)but-2-enamide] |  | 82.8 | 41.4 |
| Cc1cc2c(nc(C)n2C)c2c1-c1cccc3c(C(=O)c4cc(F)c(NC(=O)/C=C/CN5CC[C@H]5CO)c(F)c4)cn(c13)CCN2C [Example 132, (S,E)-N-(2,6-difluoro-4-(6,8,9,11-tetramethyl-8,11,12,13-tetrahydro-imidazo[4″,5″:5′,6′]-benzo[1′,2′:5,6][1,4]-diazocino[7,8,1-hi]indole-2-carbonyl)phenyl)-4-(2-(hydroxymethyl)azetidin-1-yl)but-2-enamide] | 10.8 | 16.7 |  |
| COc1cc2c(nc(C)n2C)c2c1-c1cccn3c(C(=O)c4cc(F)c(NC(=O)/C=C/CN[C@@H]5CCCOC5)c(F)c4)cc(c13)CCN2C [Example 133] |  | 6.45 | 11.4 |
| Cc1cc2c(ncn2C)c2c1-c1cccn3c(C(=O)c4cc(F)c(NC(=O)/C=C/CNC56CCC(CC5)OC6)c(F)c4)cc(c13)CCN2C [Example 134] |  | 244 | 31 |
| Cc1cc2c(nc(C)n2C)c2c1-c1cccc3c(C(=O)c4cc(F)c(NC(=O)/C=C/CN[C@H]5C[C@H]6CC[C@@H]5O6)c(F)c4)cn(c13)CCN2C [Example 136] | 26.4 | 36.1 |  |
| Cc1nc2c3c(c(C(F)(F)F)cc2n1C)-c1cccn2c(C(=O)c4cc(F)c(NC(=O)/C=C/CN[C@@H]5COC[C@H]5O)c(F)c4)cc(c12)CCN3C [Example 137] |  | 14.9 | 33.5 |
| CN1CCc2cc(C(=O)c3cc(F)c(NC(=O)C=CCNC4COCC4O)c(F)c3)n3cccc(c23)-c2c(C(F)(F)F)cc3c(ncn3C)c21 [Example 138, (E)-N-(4-(9,12-dimethyl-7-(trifluoromethyl)-9,12,13,14-tetrahydro-imidazo[4″,5″:5′,6′]benzo-[1′,2′:2,3]azocino[4,5,6-hi]indolizine-2-carbonyl)-2,6-difluorophenyl)-4-(((3R,4S)-4-hydroxytetra-hydrofuran-3-yl)amino)-but-2-enamide] |  | 30.8 | 47.2 |
| Cc1cc2c(nc(C)n2C)c2c1-c1cccc3c(C(=O)c4cc(F)c(NC(=O)/C=C/CN5CC[C@H]5C(C)(C)O)c(F)c4)cn(c13)CCN2C [Example 139, (S,E)-N-(2,6-difluoro-4-(6,8,9,11-tetramethyl-8,11,12,13-tetrahydro-imidazo[4″,5″:5′,6′]benzo-[1′,2′:5,6][1,4]diazocino-[7,8,1-hi]indole-2-carbon-yl)phenyl)-4-(2-(2-hydroxypropan-2-yl)-azetidin-1-yl)but-2-en-amide] | 59 | 57.9 |  |
| Cc1cc2c(nc(C)n2C)c2c1-c1cccc3c(C(=O)c4cc(F)c(NC(=O)/C=C/CN[C@H]5[C@@H]6COC[C@@H]65)c(F)c4)cn(c13)CCN2C [Example 143, (E)-4-(((1R,5S,6r)-3-oxa-bicyclo[3.1.0]hexan-6-yl)amino)-N-(2,6-difluoro-4-(6,8,9,11-tetramethyl-8,11,12,13-tetrahydro-imidazo[4″,5″:5′,6′]benzo-[1′,2′:5,6][1,4]diazocino-[7,8,1-hi]indole-2-carbon-yl)phenyl)but-2-enamide] | 17.8 | 47.7 |  |
| Cc1c2cc(C(F)(F)F)c3c(c2nn1C)N(C)CCc1cc(C(=O)c2cc(F)c(NC(=O)/C=C/CNC4(C)COC4)c(F)c2)n2cccc-3c12 [Example 146, (E)-N-(2,6-difluoro-4-(9,10,12-trimethyl-7-(trifluoromethyl)-10,12,13,14-tetrahydroindolizino[8′,1′:4,5,6]azocino[3,2-g]indazole-2-carbonyl)phenyl)-4-((3-methyloxetan-3-yl)amino)but-2-enamide] |  | 19.6 | 20.4 |
